Data published in patent publication US20220119411A1, “IMMUNOMODULATORS, COMPOSITIONS AND METHODS THEREOF” (BETTA PHARMACEUTICALS CO., LTD, priority 2018, published 2022).
pIC50: −log10 of the molar value.

The compounds below were run against T1, PD-1/PD-L1 protein/protein interaction (Homo sapiens, UniProt Q9NZQ7) (assay: PD-1/PD-L1 homogenous time-resolved fluorescence (HTRF) binding assay). Settings: recombinant human PD-L1 (19-238)-His 10 nM, human PD-1 (25-167)-Fc 3 nM, 25° C., PBS pH 7.4.
T1 construct: Recombinant human PD-L1 protein (19-238) with a His-tag at the C-terminus; purchased AcroBiosystems PD1-H5229 (PD-L1); PD1-H5257 (PD-1)
T1 sequence (Q9NZQ7 19-238): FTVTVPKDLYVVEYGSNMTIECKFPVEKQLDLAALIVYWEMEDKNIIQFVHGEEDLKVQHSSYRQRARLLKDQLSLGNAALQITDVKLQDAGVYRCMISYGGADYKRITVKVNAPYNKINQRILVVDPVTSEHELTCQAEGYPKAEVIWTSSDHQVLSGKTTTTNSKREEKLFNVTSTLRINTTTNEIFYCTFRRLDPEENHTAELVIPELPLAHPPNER
Protocol: Resolved Fluorescence (HTRF) Binding Assay
The assays were conducted in a standard black 384-well polystyrene plate with a final volume of 20 μL. Inhibitors were first serially diluted in DMSO and then added to the plate wells before the addition of other reaction components. The final concentration of DMSO in the assay was 1%. The assays were carried out at 25° C. in the PBS buffer (pH 7.4) with 0.05% Tween-20 and 0.1% BSA. Recombinant human PD-L1 protein (19-238) with a His-tag at the C-terminus was purchased from AcroBiosy stems (PD1-H5229). Recombinant human PD-1 protein (25-167) with Fc tag at the C-terminus was also purchased from AcroBiosystems (PD1-H5257). PD-L1 and PD-1 proteins were diluted in the assay buffer and 10 μL was added to the plate well. Plates were centrifuged and proteins were preincubated with inhibitors for 40 min. The incubation was followed by the addition of 10 μL of HTRF detection buffer supplemented with Europium cryptate-labeled anti-human IgG (PerkinElmer-AD0212) specific for Fc and anti-His antibody conjugated to SureLight®—Allophycocyanin (APC, PerkinElmer-AD0059H). After centrifugation, the plate was incubated at 25° C. for 60 min. Before reading on a PHERAstar FS plate reader (665 nm/620 nm ratio). Final concentrations in the assay were—3 nM PD1, 10 nM PD-L1, 1 nM europium anti-human IgG and 20 nM anti-His-Allophycocyanin. IC50 determination was performed by fitting the curve of percent control activity versus the log of the inhibitor concentration using the GraphPad Prism 5.0 software.
Data obtained for the Example compounds using the PD-1/PD-L1 homogenous time-resolved fluorescence (HTRF) binding assay described in Example A is provided in Table 2.

SMILES	pIC50
O=C(O)CN1CCc2nc(C(=O)N3CCCc4c(-c5ccccc5)cccc43)sc2C1 [Example 28, 2-(2-(5-phenyl-1,2,3,4-tetrahydroquinoline-1-carbonyl)-6,7-dihydrothiazolo[5,4-c]pyridin-5(4H)-yl)acetic acid]	7.00 to 7.60
Cc1c(Nc2nccc3nccnc23)cccc1-c1cccc2c1CCN2C(=O)c1nc2c(s1)CN(CC(=O)O)CC2 [Example 29, 2-(2-(4-(2-methyl-3-(pyrido[3,4-b]pyrazin-5-ylamino)phenyl)indoline-1-carbonyl)-6,7-dihydrothiazolo[5,4-c]pyridin-5(4H)-yl)acetic acid]	7.00 to 7.60
Cn1ncc2c(-c3cccc4c3CCN4C(=O)c3nc4c(s3)CN(CC(=O)O)CC4)cccc21 [Example 30, 2-(2-(4-(1-methyl-1H-indazol-4-yl)indoline-1-carbonyl)-6,7-dihydrothiazolo[5,4-c]pyridin-5(4H)-yl)acetic acid]	≥ 7.60
Cc1c(NC(=O)c2nc3c(n2C)CNCC3)cccc1-c1cccc2c1CCN2C(=O)c1nc2c(s1)CN(CC(=O)O)CC2 [Example 31, 2-(2-(4-(2-methyl-3-(3-methyl-4,5,6,7-tetrahydro-3H-imidazo[4,5-c]pyridine-2-carboxamido)phenyl)indoline-1-carbonyl)-6,7-dihydrothiazolo[5,4-c]pyridin-5(4H)-yl)acetic acid]	≥ 7.60
Cc1c(NC(=O)c2nc3c(n2C)CCNC3)cccc1-c1cccc2c1CCN2C(=O)c1nc2c(s1)CN(CC(=O)O)CC2 [Example 32, 2-(2-(4-(2-methyl-3-(1-methyl-4,5,6,7-tetrahydro-1H-imidazo[4,5-c]pyridine-2-carboxamido)phenyl)indoline-1-carbonyl)-6,7-dihydrothiazolo[5,4-c]pyridin-5(4H)-yl)acetic acid]	≥ 7.60
Cc1c(NC(=O)CCN2CCC(O)C2)cccc1-c1cccc2c1CCN2C(=O)c1nc2c(n1C)CN(CC(=O)O)CC2 (stereo not shown) [Example 33, 2-(2-(4-(3-(3-(3-hydroxypyrrolidin-1-yl)propanamido)-2-methylphenyl)indoline-1-carbonyl)-3-methyl-3,4,6,7-tetrahydro-5H-imidazo[4,5-c]pyridin-5-yl)acetic acid]	≥ 7.60
Cc1c(NC(=O)CCN2CCC(O)C2)cccc1-c1cccc2c1CCN2C(=O)c1nc2c(n1C)CNCC2 (stereo not shown) [Example 34, 3-(3-hydroxypyrrolidin-1-yl)-N-(2-methyl-3-(1-(3-methyl-4,5,6,7-tetrahydro-3H-imidazo[4,5-c]pyridine-2-carbonyl)indolin-4-yl)phenyl)propanamide]	≥ 7.60
Cn1c(C(=O)N2CCc3c(-c4cccc5c4CCN5C(=O)CCN4CCC(O)C4)cccc32)nc2c1CN(CC(=O)O)CC2 (stereo not shown) [Example 35, 2-(2-(1′-(3-(3-hydroxypyrrolidin-1-yl)propanoyl)-[4,4′-biindoline]-1-carbonyl)-3-methyl-3,4,6,7-tetrahydro-5H-imidazo[4,5-c]pyridin-5-yl)acetic acid]	≥ 7.60
Cc1c(OCCCN2CCC(O)C2)cccc1-c1cccc2c1CCN2C(=O)c1nc2c(n1C)CN(CC(=O)O)CC2 (stereo not shown) [Example 36, 2-(2-(4-(3-(3-(3-hydroxypyrrolidin-1-yl)propoxy)-2-methylphenyl)indoline-1-carbonyl)-3-methyl-3,4,6,7-tetrahydro-5H-imidazo[4,5-c]pyridin-5-yl)acetic acid]	≥ 7.60
Cc1c(OCCCN2CCC(O)C2)cccc1-c1cccc2c1CCN2C(=O)c1nc2c(n1C)CCN(CC(=O)O)C2 (stereo not shown) [Example 37, 2-(2-(4-(3-(3-(3-hydroxypyrrolidin-1-yl)propoxy)-2-methylphenyl)indoline-1-carbonyl)-1-methyl-1,4,6,7-tetrahydro-5H-imidazo[4,5-c]pyridin-5-yl)acetic acid]	≥ 7.60
Cc1c(OCCCN2CCC(O)C2)cccc1-c1cccc2c1CCN2C(=O)c1nc2c(n1C)CCNC2 (stereo not shown) [Example 38, (4-(3-(3-(3-hydroxypyrrolidin-1-yl)propoxy)-2-methylphenyl)indolin-1-yl)(1-methyl-4,5,6,7-tetrahydro-1H-imidazo[4,5-c]pyridin-2-yl)methanone]	≥ 7.60

The next lines start with the values.

pIC50	SMILES
≥ 7.60	Cc1c(OCCCN2CCC(O)C2)cccc1-c1cccc2c1CCN2C(=O)c1nc2c(n1C)CNCC2 (stereo not shown) [Example 39, (4-(3-(3-(3-hydroxypyrrolidin-1-yl)propoxy)-2-methylphenyl)indolin-1-yl)(3-methyl-4,5,6,7-tetrahydro-3H-imidazo[4,5-c]pyridin-2-yl)methanone]
7.00 to 7.60	Cn1c(C(=O)N2CCc3c(-c4cccc5c4CCN5CCCN4CCC(O)C4)cccc32)nc2c1CCNC2 (stereo not shown) [Example 40, (1′-(3-(3-hydroxypyrrolidin-1-yl)propyl)-[4,4′-biindolin]-1-yl)(1-methyl-4,5,6,7-tetrahydro-1H-imidazo[4,5-c]pyridin-2-yl)methanone]
≥ 7.60	Cc1c(OCCCN2CCC(O)C2)cccc1-c1cccc2c1CCN2C(=O)c1cn2c(n1)CNCC2 (stereo not shown) [Example 41, (4-(3-(3-(3-hydroxypyrrolidin-1-yl)propoxy)-2-methylphenyl)indolin-1-yl)(5,6,7,8-tetrahydroimidazo[1,2-a]pyrazin-2-yl)methanone]
≥ 7.60	O=C(CCN1CCC(O)C1)N1CCc2c(-c3cccc4c3CCN4C(=O)c3cn4c(n3)CNCC4)cccc21 (stereo not shown) [Example 42, 3-(3-hydroxypyrrolidin-1-yl)-1-(1′-(5,6,7,8-tetrahydroimidazo[1,2-a]pyrazine-2-carbonyl)-[4,4′-biindolin]-1-yl)propan-1-one]
≥ 7.60	Cc1c(OCCCN2CCC(O)C2)cccc1-c1cccc2c1CCN2C(=O)c1nnc(CN)s1 (stereo not shown) [Example 43, (5-(aminomethyl)-1,3,4-thiadiazol-2-yl)(4-(3-(3-(3-hydroxypyrrolidin-1-yl)propoxy)-2-methylphenyl)indolin-1-yl)methanone]
≥ 7.60	Cc1c(OCCCN2CCC(O)C2)cccc1-c1cccc2c1CCN2C(=O)c1nnc([C@@H]2CCCN2)s1 (stereo partly drawn) [Example 44, (4-(3-(3-(3-hydroxypyrrolidin-1-yl)propoxy)-2-methylphenyl)indolin-1-yl)(5-((S)-pyrrolidin-2-yl)-1,3,4-thiadiazol-2-yl)methanone]
≥ 7.60	Cc1c(OCCCN2CCCC2)cccc1-c1cccc2c1CCN2C(=O)c1ncc(CNCCO)s1 [Example 45, (5-(((2-hydroxyethyl)amino)methyl)thiazol-2-yl)(4-(2-methyl-3-(3-(pyrrolidin-1-yl)propoxy)phenyl)indolin-1-yl)methanone]
≥ 7.60	Cc1nc(C(=O)N2CCc3c(-c4cccc5c4CCN5C(=O)CCN4CCC(O)C4)cccc32)sc1CNCCO (stereo not shown) [Example 46, 1-(1′-(5-(((2-hydroxyethyl)amino)methyl)-4-methylthiazole-2-carbonyl)-[4,4′-biindolin]-1-yl)-3-(3-hydroxypyrrolidin-1-yl)propan-1-one]
7.00 to 7.60	O=C(c1cn2c(n1)CNCC2)N1CCc2c(-c3cccc4c3cnn4CCCN3CCOCC3)cccc21 [Example 47, (4-(1-(3-morpholinopropyl)-1H-indazol-4-yl)indolin-1-yl)(5,6,7,8-tetrahydroimidazo[1,2-a]pyrazin-2-yl)methanone]
6.70 to 7.00	Cn1ncc2c(-c3cccc4c3CCN4C(=O)c3cn4c(n3)CNCC4)cccc21 [Example 48, (4-(1-methyl-1H-indazol-4-yl)indolin-1-yl)(5,6,7,8-tetrahydroimidazo[1,2-a]pyrazin-2-yl)methanone]
≥ 7.60	O=C(O)CN1CCc2nc(C(=O)N3CCc4c(-c5ccc(NC(=O)CCN6CCC(O)C6)cc5)cccc43)sc2C1 (stereo not shown) [Example 49, 2-(2-(4-(4-(3-(3-hydroxypyrrolidin-1-yl)propanamido)phenyl)indoline-1-carbonyl)-6,7-dihydrothiazolo[5,4-c]pyridin-5(4H)-yl)acetic acid]
≥ 7.60	O=C(O)CN1CCc2nc(C(=O)N3CCc4c(-c5ccc(OCCCN6CCC(O)C6)cc5)cccc43)sc2C1 (stereo not shown) [Example 50, 2-(2-(4-(4-(3-(3-hydroxypyrrolidin-1-yl)propoxy)phenyl)indoline-1-carbonyl)-6,7-dihydrothiazolo[5,4-c]pyridin-5(4H)-yl)acetic acid]
≥ 7.60	Cn1c(C(=O)N2CCCc3c(-c4cccc(OCCN5CCOCC5)c4)cccc32)nc2c1CN(CC(=O)O)CC2 [Example 51, 2-(3-methyl-2-(5-(3-(2-morpholinoethoxy)phenyl)-1,2,3,4-tetrahydroquinoline-1-carbonyl)-3,4,6,7-tetrahydro-5H-imidazo[4,5-c]pyridin-5-yl)acetic acid]
≥ 7.60	Cn1c(C(=O)N2CCCc3c(-c4cccc(OCCN5CCOCC5)c4)cccc32)nc2c1CCN(CC(=O)O)C2 [Example 52, 2-(1-methyl-2-(5-(3-(2-morpholinoethoxy)phenyl)-1,2,3,4-tetrahydroquinoline-1-carbonyl)-1,4,6,7-tetrahydro-5H-imidazo[4,5-c]pyridin-5-yl)acetic acid]
